Counter-ions that a name gives are not always drawn.
Key:
[1] = system: reserpine induced hypothermia; assay: Antireserpine activity in mice (antagonism of reserpine induced hypothermia); format: in vivo
in vivo = conditions: mouse, ip
mice = conditions: mouse, in vivo, ip
[2] = mice, i.p., reserpine 5 mg/kg i.p., Amitriptyline = 1

With `CCNCCCCOc1ccccc1Cc1ccccc1` [2-(4-ethylaminobutoxy)diphenylmethane hydrochloride] the “Antireserpine activity, Relative Potency” value ([1]; mouse, in vivo) was 0.53 and the LD50 (in vivo) was 120 mg/kg.

In the case of `c1ccc(Cc2ccccc2OCCCCN2CCCCC2)cc1` [2-[4-(1-piperidyl)butoxy]diphenylmethane hydrochloride], the “Antireserpine activity, Relative Potency” value [1, 2] is reported as 0.41.

With `CN(C)CCC=C1c2ccccc2CCc2ccccc21` [Amitriptyline] the LD50 (mice) was 65 mg/kg.

With `CN(C)CCCCOc1ccccc1Cc1ccccc1.Cl` [2-(4-dimethylaminobutoxy) diphenyl methane hydrochloride] the “Antireserpine activity, Relative Potency” value ([1]; mouse, in vivo) was 0.

With `CN(C)CCCCCOc1ccccc1Cc1ccccc1` [2-(5-dimethylaminopentyloxy)diphenylmethane hydrochloride] the “Antireserpine activity, Relative Potency” value [1, 2] was 0.23 and the “antidepressant activity (in words)” value ([1]; mouse, in vivo) was “inferior antidepressant activity”.

In the case of `CNCCCCCOc1ccccc1Cc1ccccc1` [2-(5-methylaminopentyloxy)diphenylmethane hydrochloride], the “Antireserpine activity, Relative Potency” value ([1]; mouse, in vivo) is reported as 0.54 and the LD50 (in vivo) is reported as 160 mg/kg.

With `CN(C)CCCOc1ccccc1Cc1ccccc1` [2-(3-dimethylaminopropoxy)diphenylmethane hydrochloride] the “antidepressant activity (in words)” value ([1]; mouse, in vivo) was “no such activity”.
